Reference: US20150125452A1, “COMBINATION TREATMENTS COMPRISING C-MET ANTAGONISTS AND B-RAF ANTAGONISTS” (GENENTECH, INC., priority 2011, published 2015)

Key:
[1] = tested on: kinase-addicted cancer cell lines; test: RTK ligand matrix screen, Syto 60 cell viability; type: cell-based, Human; details: for effect of RTK ligand on conferring drug resistance to kinase inhibitors: 50 ng/mL RTK ligand, 72 h, 41 cell lines
Description: (§1) Cell viability was assessed using the nucleic acid stain Syto 60 (Invitrogen). Cells (3000-5000 per well) were seeded into 96 well plates and allowed to adhere overnight. The next day, cells were treated with (or without) 50 ng/mL RTK ligand and concomitantly exposed to an increasing concentration range of the relevant kinase inhibitor. Following 72 hours drug exposure, cells were fixed in 4% formaldehyde, stained with Syto 60 and cell number was assessed using an Odyssey scanner (Li-Cor). Cell viability was calculated by dividing the fluorescence obtained from the drug-treated cells by the fluorescence obtained from the control (no drug) treated cells.
Cell lines. Human cancer cell lines were obtained and tested for sensitivity using an automated platform as previously described (Johannessen, C. M. et al. COT drives resistance to RAF inhibition through MAP kinase pathway reactivation. Nature 468, 968-972, doi:10.1038/nature09627 (2010)). Cell lines were maintained at 37° C. in a humidified atmosphere at 5% CO2 and grown in RPMI 1640 or DMEM/F12 growth media (GIBCO) supplemented with 10% fetal bovine serum (GIBCO), 50 units/mL penicillin and 50 μg/mL streptomycin (GIBCO).
Using 41 different human tumor-derived cell lines with previously defined kinase dependency^7-9, we undertook a “matrix analysis” to examine the effects of 6 different RTK ligands (HGF, EGF, FGF, PDGF, NRG1, IGF)—known to be widely expressed in cancer cells and tumor stroma^10—on drug response. Specifically, we quantified the effect of exposing these cancer cell lines (e.g., AU565 (HER2 amp)) to each ligand on the IC50 for a kinase inhibitor (e.g., lapatinib) that otherwise potently suppresses their growth within 72 hours (FIG. 1A). Nearly all of the kinase-dependent cancer cell lines tested, which included cells derived from multiple tissue types and with distinct kinase dependencies (EGFR, HER2, BRAF, MET, ALK, PDGFR, and FGFR), could be rescued from drug-induced growth inhibition by one or more RTK ligands, highlighting the potentially broad contribution of these ligands to the response to selective kinase inhibitors in kinase-addicted tumor cells (FIG. 1B).

928MEL xenografts = test: Xenograft tumour growth assay; type: in vivo, CRL C.B-17 SCID.bg mice; details: for tumor regression, B-raf antagonist plus c-met antagonist versus PLX[…] alone: PLX[…]-treated xenografts
Description: […] Differences between the 2 groups were determined using two-way ANOVA (*=0.0008).
All procedures conformed to the guidelines and principles set by the Institutional Animal care and Use Committee of Genentech and were carried out in an AAALAC (Association for the Assessment and Accreditation of Laboratory Animal care) accredited facility. […] Tumor volumes were calculated using the formula (Lx(W×W))/2. A partial response (PR) in this example was defined as a reduction in tumour volume greater than 50% but less than 100%. A complete response (CR) in this example was defined as 100% reduction in tumour volume. […]

[2] = tested on: BRAF mutant metastatic melanoma patients; test: BRIM2 clinical trial, outcome by plasma HGF level; type: in vivo, human; details: PLX[…]-treated patients
Description: Plasma was obtained from metastatic melanoma patients pre-dose cycle one and the concentration of HGF in patient-derived plasma were quantitatively measured using a sandwich enzyme-linked immunosorbent assay (ELISA). Wells of NUNC MaxiSorp microtiter plates were coated (ON, 4° C.) with 0.5 μg/mL of affinity-purified Goat antihuman hepatocyte growth factor polyclonal antibody in 100 μL of coating buffer (0.05M sodium carbonate buffer, pH 9.6) and were then blocked with 0.5% bovine serum albumin (BSA) in assay buffer (PBS, 0.5% BSA, 0.05% P 20, 0.25% CHAPS, 0.35M NaCl, 5 mM EDTA, 10 ppm Proclin300, pH 7.4) for 1 hour at room temperature. Diluted human hepatocyte growth factor controls and plasma samples (100 μL) in assay buffer were loaded in duplicates and incubated for 2 hours at room temperature, followed by the addition of 100 μL of affinity-purified goat antihuman hepatocyte growth factor biotin (150 ng/mL) for an additional 1 hour at room temperature. Avidin-conjugated horseradish peroxidase (40 ng/mL) in PBS, 0.5% BSA, 0.05% P 20, 10 ppm Proclin300, pH 7.4, was added (1 hour, room temperature), and the reaction was visualized by the addition of 100 μL of chromogenic substrate (TMB) for 15 minutes. The reaction was stopped with 1M phosphoric acid and absorbance at 450 nm was measured with reduction at 630 nm with an ELISA plate reader. Plates were washed 3 times with washing buffer (0.05% Tween 20/PBS) after each step. As a reference for quantification, a standard curve was established by a serial dilution of human hepatocyte growth factor (CritRS CR67; 2000-15.625 pg/mL).
HGF levels were log-transformed, and the Kolmogorov-Smirnoff test was used to test the resulting distribution for departure from the Gaussian distribution. The Cox-proportional model was used to test the log-transformed HGF levels for association with the progression free survival (PFS) and overall survival (OS). Association between the response and HGF levels was tested using the Wilcoxon rank-sum test. Kaplan-Meier (KM) curves were used to show display the relationship between the HGF levels and the time-to-event outcomes (PFS and OS). […] The cox-proportional model of the outcome as the function of the continuous HGF level was used to calculate the hazard ratio and corresponding p-value.

[3] = tested on: BRAF mutant melanoma cell lines; test: Syto 60 cell viability, HGF rescue from PLX[…]; type: cell-based, Human
Description: Cells were treated twice weekly for the indicated times. […] Error bars represent mean+/−s.e.m.
as §1, with “Following 72 hours drug exposure, cells were fixed in 4% formaldehyde, stained with Syto 60 and cell number was assessed using an Odyssey scanner (Li-Cor).” left out

[4] = tested on: kinase-addicted cancer cell lines; test: RTK ligand matrix screen, Syto 60 cell viability; type: cell-based, Human; details: six kinase addicted cell lines, six RTK ligands
[5] = tested on: AKT and ERK phosphorylation; test: Immunoblots of survival pathway re-activation; type: cell-based, Human; details: for PI3K/MAPK pathway re-activation by RTK ligand in presence of kinase inhibitor: 50 ng/mL ligand, kinase inhibitor 1 μM, 2 h
Description: FIGS. 2A-2C: pro-survival pathway re-activation correlated with RTK ligand rescue. FIG. 2A, Immunoblots showing the effect of acute RTK ligand treatment (50 ng/mL) on AKT and ERK phosphorylation following kinase inhibition (1 μM, 2 h). RTK ligand rescue is indicated, grey squares indicates complete rescue and black squares indicates partial rescue as determined by the initial screen (FIG. 1B). […] Cells were co-treated with 50 ng/mL RTK ligand in the presence of the appropriate secondary kinase inhibitor (0.5 μM) as indicated. […] Error bars represent mean+/−s.e.m. FIG. 2C, Immunoblots showing the effect of acute kinase inhibition (1 μM) in the presence and absence of RTK ligands (50 ng/mL, 2 h) on AKT and ERK phosphorylation. Cells were co-treated with secondary kinase inhibitor (0.5 μM) as appropriate.
Cell lysates were harvested using Nonidet-P40 lysis buffer, supplemented with Halt protease and phosphatase inhibitor cocktail (Thermo Scientific) and immunodetection of proteins was carried out using standard protocols. The phospho-HER2 (Y1248; #2247), HER2 (#2242), phospho-HER3 (Y1289; #4791), phospho-MET (Y1234/5; #3126), PDGFRα (#5241), phospho-FRS2α (Y196; #3864), IGF-1Rβ (#3027), phospho-ALK (Y1604; #3341), AKT (#9272), phospho-ERK (T202/Y204; #9101), ERK (#9102), GAPDH (#2118) and β-Tubulin (#2146) antibodies were purchased from Cell Signaling Technologies. Antibodies to HER3 (SC-285), MET (SC-10), phospho-PDGFRα (SC-12911), FRS2α (SC-8318), FGFR1 (SC-7945), FGFR2 (SC-122), FGFR3 (SC-13121) and ALK (SC-25447) were purchased from Santa Cruz Biotechnologies. Phospho-AKT (S473; #44-621G) antibody was purchased from Invitrogen. Phospho-EGFR (Y1068; ab5644) antibody was purchased from Abeam. EGFR (#610017) antibody was purchased from BD Biosciences. PARP (#14-6666-92) antibody was purchased from eBioscience. Densitometry was carried out using ImageJ software.

[6] = tested on: AU565 HER2 amplified breast cancer cells; test: Syto 60 viability and long-term staining with lapatinib and ligands; type: cell-based, Human; details: lapatinib 1 μM, 10 ng/mL NRG1, FGF or combination, 72 h
Description: FIGS. 3A-3G: HGF promoted lapatinib resistance in HER2 amplified cell lines. […] HGF rescue is indicated, black squares indicates partial rescue as determined by the initial screen (FIG. 1B). […] Cells were treated every three days for the indicated times. […] FIG. 3D, Immunoblots showing the re-activation of pAKT and pERK in two MET positive (AU565, HCC1954) and one MET negative (BT474) HER2 amplified cell lines. […] FIG. 3E, Representative slides showing MET expression in HER2 positive (3+) breast cancer tissues. FIG. 3F, selection of higher MET expressing AU565 cells following 3× treatments with lapatinib (1 μM) and HGF (50 ng/mL). FIG. 3G. […] Cells were treated twice weekly for the indicated times.
AU565 sells were co-treated with lapatinib (1 μM) in combination with 10 ng/mL NRG1 or FGF. […] Cells were treated with the appropriate kinase inhibitors in the presence of HGF (50 ng/mL). Cells were then treated with either 100 nM PI3K inhibitor (BEZ235) or MAPK inhibitor (AZD6244). Error bars represent mean+/−s.e.m.
as §1

[7] = tested on: HER2-amplified breast cancer cell lines; test: Syto 60 cell viability, ligand rescue from lapatinib; type: cell-based, Human; details: 50 ng/mL ligand, 72 h
Description: as §1
The ability of HGF to rescue 3 of 9 tested HER2-amplified breast cancer cell lines from growth inhibition by the HER2 kinase inhibitor lapatinib was also unexpected (FIG. 3A). These 3 cell lines all express MET, and expression was well correlated with the ability of HGF to attenuate lapatinib response (FIG. 3B).

[8] = tested on: HCC1954 HER2 amplified breast cancer cells; details: lapatinib 5 μM, crizotinib 1 μM, twice weekly
Description: Cells were treated twice weekly for the indicated times.
The effects of MET kinase inhibition to delay lapatinib resistance in HCC 1954 cells were examined.

[9] = 10 mice per group, 4 weeks, PR = tumour volume reduction >50% but <100%

Compound: Cn1c(=O)n(-c2ccc(C(C)(C)C#N)cc2)c2c3cc(-c4cnc5ccccc5c4)ccc3ncc21 [BEZ235, reference compound]
- reversal of HGF-induced rescue by PI3K versus MAPK pathway inhibition ([1]; 100 nM BEZ235 or AZD6244, HGF 50 ng/mL, with kinase inhibitor): more potent at reversing ligand—induced rescue

Compound: PLX4032
- partial responses, PLX[…] alone (928MEL xenografts; [9]): 1
- tumor regression, B-raf antagonist plus c-met antagonist versus PLX[…] alone (928MEL xenografts): statistically significant improvement in tumor regression
- hazard ratio, overall survival with increased HGF ([2]; Cox-proportional model, p<0.001): 1.8
- hazard ratio, progression free survival with increased HGF ([2]; Cox-proportional model, p<0.005): 1.42
- overall survival, HGF above median versus below median ([2]; median plasma HGF 334 pg/mL, p<0.001): substantially reduced
- progression-free survival, HGF above median versus below median ([2]; median plasma HGF 334 pg/mL, p=0.005): substantially reduced
- correlation of MET expression with PLX[…] sensitivity ([3]; HGF-rescuable cell lines): inversely correlated

Compound: PDGF: recombinant human PDGF-AB purchased from Peprotech
- effect of RTK ligand on conferring drug resistance to kinase inhibitors [1]: relatively little effect

Compound: N.N.[Cl][Pt][Cl] [cisplatin]
- RTK ligand rescue from growth suppressive effects of cisplatin [4]: none of the tested RTK ligands could rescue cells

Compound: NRG1: HER3 ligand, rhNRG1-β1 purchased from R and D Systems
- PI3K/MAPK pathway re-activation by RTK ligand in presence of kinase inhibitor [5]: only re-activated the PI3K
- effect of RTK ligand on conferring drug resistance to kinase inhibitors [1]: most broadly active ligands
- rescue despite activation of receptor and a downstream survival effector ([1]; H2228 and H358 cells with HGF, COLO-201 cells with NRG1): not sufficient to rescue cells from kinase inhibition
- rescue from kinase inhibition by activating both PI3K and MAPK pathways [6]: additive
- number of HER2-amplified breast cancer cell lines rescued from lapatinib [7]: 8 of the 9

Compound: IGF: recombinant human IGF-1 purchased from Peprotech
- PI3K/MAPK pathway re-activation by RTK ligand in presence of kinase inhibitor [5]: only re-activated the PI3K
- downstream signalling after receptor activation in non-rescued cells ([5]; COLO-201 and BT474 cell lines, IGF): downstream signalling via PI3K or MAPK was not observed
- effect of RTK ligand on conferring drug resistance to kinase inhibitors [1]: relatively little effect

Compound: FGF: recombinant human FGF-basic purchased from Peprotech
- PI3K/MAPK pathway re-activation by RTK ligand in presence of kinase inhibitor [5]: only re-activated the MAPK pathway
- effect of RTK ligand on conferring drug resistance to kinase inhibitors [1]: most broadly active ligands
- rescue from kinase inhibition by activating both PI3K and MAPK pathways [6]: additive

Compound: C[C@@H](Oc1cc(-c2cnn(C3CCNCC3)c2)cnc1N)c1c(Cl)ccc(F)c1Cl [crizotinib, 3-[(1R)-1-(2,6-dichloro-3-fluorophenyl)ethoxy]-5-(1-piperidin-4-ylpyrazol-4-yl)pyridin-2-amine]
- emergence of lapatinib resistance under MET kinase inhibition [8]: delayed the emergence of lapatinib resistance
- reversal of HGF survival rescue by MET inhibition ([3]; PLX[…], HGF 50 ng/mL, crizotinib 0.5 μM, 72 h): survival rescue by HGF was reversed

Compound: CCN1CC[C@@H](Nc2n[nH]c3nccc(Oc4ccc(NC(=O)c5ccnn(-c6ccc(F)cc6)c5=O)cc4F)c23)[C@@H](F)C1 [GDC-0712, N-(4-(3-((3S,4R)-1-ethyl-3-fluoropiperidine-4-ylamino)-1H-pyrazolo[3,4-b]pyridin-4-yloxy)-3-fluorophenyl)-2-(4-fluorophenyl)-3-oxo-2,3-dihydropyridazine-4-carboxamide]
- partial responses, PLX[…] with MET kinase inhibition (928MEL xenografts; [9]): 8
- tumor regression, B-raf antagonist plus c-met antagonist versus PLX[…] alone (928MEL xenografts): greater effect on tumor regression
